Test results from patent publication US7265129B2, “Anti-infective biaryl compounds” (priority 2002, dated 2007).

How the values were obtained:
[1] = tested on: S. pneumoniae ATCC 49619; assay: MIC, NCCLS broth microdilution, S. pneumoniae; assay type: cell-based, Streptococcus pneumoniae
Outline: (§1)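 Following NCCLS guidance, in vitro activity is measured as MIC with the microtiter broth microdilution reference method. For yeast, the procedure recommended in the 1995 Manual of Clinical Microbiology applies.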

[2] = tested on: E. faecium ATCC 51559; assay: MIC, E. faecium VRE; assay type: cell-based, Enterococcus faccium; details: Table C; E. faecium ATCC 51559, vancomycin resistant strain (VRE)
Procedure: (§2) Compounds according to this invention were screened for their in vitro activities against selected species of bacteria and fungi. The minimal inhibition concentration (MIC) of these compounds was determined using the National Committee for Clinical Laboratory Standards (NCCLS) broth microdilution assay in microtiter plates, as set forth in: (1) the guidelines of the National Committee for Clinical Laboratory Standards (NCCLS) Document M7-A4 (NCCLS, 1997); (2) the guidelines of the National Committee for Clinical Laboratory Standards (NCCLS) Document M11-A4 (NCCLS, 1997); and (3) the guidelines and reference method of the National Committee for Clinical Laboratory Standards (NCCLS) Document M27-T (NCCLS, 1995). For antifungal assays, the method recommended in Murray, P R., 1995 Manual of Clinical Microbiology (ASM Press, Washington, D.C.), was employed.
(§3) Additionally, some compounds were screened against Enterococcus faccium (ATCC 51559, a vancomycin resistant strain (VRE)), Staphylococcus epidermidis (ATCC 12228), Streptococcus pneumoniae (ATCC 51422, a penicillin resistant strain (PRSP)), and/or Streptococcus pyogenes (ATCC 49399).

[3] = tested on: S. aureus ATCC 27660; assay: MIC, NCCLS broth microdilution, S. aureus MRSA; assay type: cell-based, Staphylococcus aureus; details: S. aureus ATCC 27660, methicillin resistant strain (MRSA)
Outline: as §1

[4] = tested on: S. aureus ATCC 13709; assay: MIC, NCCLS broth microdilution, S. aureus MSSA; assay type: cell-based, Staphylococcus aureus; details: S. aureus ATCC 13709, methicillin sensitive strain (MSSA)
Outline: as §1

[5] = tested on: B. cereus ATCC 11778; assay: MIC, NCCLS broth microdilution, B. cereus; assay type: cell-based, Bacillus cereus
Outline: as §1

[6] = MIC, Table C (organism not given); assay type: cell-based
Procedure: as §2, §3

[7] = tested on: E. faecalis ATCC 29212; assay: MIC, NCCLS broth microdilution, E. faecalis; assay type: cell-based, Enterococcus faecalis
Outline: as §1

[8] = tested on: S. pyogenes ATCC 4399; assay: MIC, S. pyogenes; assay type: cell-based, Streptococcus pyogenes; details: Table C
Procedure: as §2, §3

[9] = tested on: S. aureus ATCC 33591; assay: MIC, NCCLS broth microdilution, S. aureus ATCC 33591; assay type: cell-based, Staphylococcus aureus
Outline: as §1

[10] = tested on: S. epidermidis ATCC 12228; assay: MIC, S. epidermidis; assay type: cell-based, Staphylococcus epidermidis; details: Table C
Procedure: as §2, §3

[11] = tested on: S. pneumoniae ATCC 51422; assay: MIC, S. pneumoniae PRSP; assay type: cell-based, Streptococcus pneumoniae; details: Table C; S. pneumoniae ATCC 51422, penicillin resistant strain (PRSP)
Procedure: as §2, §3

[12] = tested on: C. albicans ATCC 38247; assay: MIC, antifungal assay, C. albicans; assay type: cell-based, Candida albicans
Outline: as §1

Cn1cc(NC(=O)c2cc(NC(=O)c3ccc(Cl)cc3F)cn2CCCN2CCC(F)(F)CC2)cc1-c1nc2cccnc2[nH]1 [Compound A-43]
Minimum Inhibitory Concentration (MIC), organism G [1]: +++ (MIC ≦ 4 μg/mL)
Minimum Inhibitory Concentration (MIC), organism A [2]: +++ (MIC ≦ 4 pg/mL)
Minimum Inhibitory Concentration (MIC), organism E [3]: +++ (MIC ≦ 4 μg/mL)
Minimum Inhibitory Concentration (MIC), organism D [4]: ++ (4 < MIC < 12 μg/mL)
Minimum Inhibitory Concentration (MIC), organism A [5]: +++ (MIC ≦ 4 μg/mL)
Minimum Inhibitory Concentration (MIC), organism E [6]: +++ (MIC ≦ 4 pg/mL)
Minimum Inhibitory Concentration (MIC), organism C [7]: ++ (4 < MIC < 12 μg/mL)
Minimum Inhibitory Concentration (MIC), organism D [8]: ++ (4 < MIC < 12 μg/mL)
Minimum Inhibitory Concentration (MIC), organism F [9]: ++ (4 < MIC < 12 μg/mL)
Minimum Inhibitory Concentration (MIC), organism B [10]: +++ (MIC ≦ 4 pg/mL)
Minimum Inhibitory Concentration (MIC), organism C [11]: ++ (4 < MIC < 12 μg/mL)
Minimum Inhibitory Concentration (MIC), organism B [12]: >32 µg/mL
